This is an account of results in paper PMC7368294 (Proceedings of the National Academy of Sciences of the …, 2020).

Common to all, as to test: cell-based
Parameters in all cases: species or system Xenopus laevis oocytes

Test [1] addresses Btα1/Btα2/Btα8/Btβ1 nAChR (Bombus terrestris, UniProt A0A9B0BGM1+A0A9B0F4H3+A0A9B2JDZ7+A0A9B2JMX7).
For test [2], the target named is T1, Amα1/Amα8/Amβ1 nAChR (Apis mellifera, UniProt A0A7M7MMZ9+A0A8U0WQ70+A0A8U0WQC0).
T1 sequence (A0A7M7MMZ9 44-627): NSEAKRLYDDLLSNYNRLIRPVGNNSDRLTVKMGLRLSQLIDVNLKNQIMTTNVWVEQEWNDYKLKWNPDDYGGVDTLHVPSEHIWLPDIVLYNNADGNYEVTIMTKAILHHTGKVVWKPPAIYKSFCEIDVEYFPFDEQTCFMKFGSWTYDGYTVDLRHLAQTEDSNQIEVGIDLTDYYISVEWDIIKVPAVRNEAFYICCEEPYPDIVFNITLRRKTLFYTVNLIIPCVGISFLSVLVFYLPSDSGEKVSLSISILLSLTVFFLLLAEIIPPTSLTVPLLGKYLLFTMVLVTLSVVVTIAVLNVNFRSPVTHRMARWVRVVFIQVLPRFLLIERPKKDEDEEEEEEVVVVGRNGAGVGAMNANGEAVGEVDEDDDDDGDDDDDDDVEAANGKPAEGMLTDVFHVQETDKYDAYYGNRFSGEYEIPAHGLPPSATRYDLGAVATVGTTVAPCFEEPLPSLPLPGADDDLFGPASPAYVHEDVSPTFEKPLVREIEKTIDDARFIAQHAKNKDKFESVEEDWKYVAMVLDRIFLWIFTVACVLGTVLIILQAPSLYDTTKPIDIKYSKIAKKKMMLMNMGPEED
T1 sequence (A0A8U0WQ70 25-537): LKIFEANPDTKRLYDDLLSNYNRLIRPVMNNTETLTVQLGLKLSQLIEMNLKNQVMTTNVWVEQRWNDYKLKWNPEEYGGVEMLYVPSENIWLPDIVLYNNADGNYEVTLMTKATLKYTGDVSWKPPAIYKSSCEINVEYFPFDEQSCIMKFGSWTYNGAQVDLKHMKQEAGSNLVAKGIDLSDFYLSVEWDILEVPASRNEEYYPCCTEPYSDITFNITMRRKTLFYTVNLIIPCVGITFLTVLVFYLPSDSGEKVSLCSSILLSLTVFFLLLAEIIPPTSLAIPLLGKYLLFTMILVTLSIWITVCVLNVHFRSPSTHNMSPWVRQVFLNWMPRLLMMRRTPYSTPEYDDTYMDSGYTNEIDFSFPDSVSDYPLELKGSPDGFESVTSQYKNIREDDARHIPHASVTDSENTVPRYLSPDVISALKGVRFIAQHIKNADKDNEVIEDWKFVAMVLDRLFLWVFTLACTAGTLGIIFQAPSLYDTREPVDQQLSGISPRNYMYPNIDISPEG
T1 sequence (A0A8U0WQC0 25-520): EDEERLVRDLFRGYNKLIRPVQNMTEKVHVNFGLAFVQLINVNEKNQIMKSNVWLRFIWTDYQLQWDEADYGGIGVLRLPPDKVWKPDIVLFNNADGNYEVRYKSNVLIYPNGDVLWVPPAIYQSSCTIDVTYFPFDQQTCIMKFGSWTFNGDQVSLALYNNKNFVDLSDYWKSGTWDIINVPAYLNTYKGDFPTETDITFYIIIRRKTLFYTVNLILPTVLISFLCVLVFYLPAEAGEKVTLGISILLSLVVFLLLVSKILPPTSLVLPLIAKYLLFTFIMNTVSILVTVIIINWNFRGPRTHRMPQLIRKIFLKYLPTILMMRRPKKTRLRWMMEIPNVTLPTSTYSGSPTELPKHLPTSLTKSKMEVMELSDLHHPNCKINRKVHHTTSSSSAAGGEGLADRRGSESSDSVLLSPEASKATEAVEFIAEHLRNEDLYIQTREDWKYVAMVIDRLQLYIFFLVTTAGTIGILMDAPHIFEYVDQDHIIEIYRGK

Test [3] deals with Amα1/Amα2/Amα8/Amβ1 nAChR (Apis mellifera, UniProt A0A7M7MMZ9+A0A8U0WQ70+A0A8U0WQC0+A0A8U0WQD1).
Test [4] has as its target T2, Btα1/Btα8/Btβ1 nAChR (Bombus terrestris, UniProt A0A9B0BGM1+A0A9B0F4H3+A0A9B2JDZ7).
T2 sequence (A0A9B0F4H3 44-615): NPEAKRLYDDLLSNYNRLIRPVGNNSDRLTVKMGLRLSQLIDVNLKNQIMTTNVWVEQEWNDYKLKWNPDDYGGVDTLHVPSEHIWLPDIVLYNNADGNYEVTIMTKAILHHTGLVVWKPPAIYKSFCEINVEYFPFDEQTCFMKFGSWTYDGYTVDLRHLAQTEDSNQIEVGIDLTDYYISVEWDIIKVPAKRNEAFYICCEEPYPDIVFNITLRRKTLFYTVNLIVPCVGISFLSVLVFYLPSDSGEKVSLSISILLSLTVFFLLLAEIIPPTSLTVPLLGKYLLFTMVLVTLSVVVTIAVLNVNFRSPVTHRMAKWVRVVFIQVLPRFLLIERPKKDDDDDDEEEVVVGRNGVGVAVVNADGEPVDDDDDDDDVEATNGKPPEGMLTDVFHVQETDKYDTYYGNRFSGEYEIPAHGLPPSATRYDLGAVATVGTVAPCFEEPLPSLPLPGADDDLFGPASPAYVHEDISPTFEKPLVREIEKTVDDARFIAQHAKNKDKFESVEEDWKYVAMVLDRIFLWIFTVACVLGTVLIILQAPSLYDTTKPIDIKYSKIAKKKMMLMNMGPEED
T2 sequence (A0A9B2JDZ7 22-535): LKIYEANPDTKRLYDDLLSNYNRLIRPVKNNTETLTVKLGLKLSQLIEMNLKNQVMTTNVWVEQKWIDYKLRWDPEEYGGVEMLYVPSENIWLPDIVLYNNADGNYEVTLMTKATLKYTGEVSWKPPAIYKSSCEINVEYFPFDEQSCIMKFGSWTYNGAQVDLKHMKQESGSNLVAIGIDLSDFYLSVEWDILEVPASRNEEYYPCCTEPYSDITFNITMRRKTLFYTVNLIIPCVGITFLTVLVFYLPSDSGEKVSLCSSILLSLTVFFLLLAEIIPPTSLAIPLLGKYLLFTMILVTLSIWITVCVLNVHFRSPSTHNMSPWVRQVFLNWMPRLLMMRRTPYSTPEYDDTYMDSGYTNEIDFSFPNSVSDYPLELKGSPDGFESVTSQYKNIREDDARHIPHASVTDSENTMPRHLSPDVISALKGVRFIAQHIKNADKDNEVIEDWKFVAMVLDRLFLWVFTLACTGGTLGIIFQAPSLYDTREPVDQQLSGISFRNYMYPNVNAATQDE
T2 sequence (A0A9B0BGM1 19-519): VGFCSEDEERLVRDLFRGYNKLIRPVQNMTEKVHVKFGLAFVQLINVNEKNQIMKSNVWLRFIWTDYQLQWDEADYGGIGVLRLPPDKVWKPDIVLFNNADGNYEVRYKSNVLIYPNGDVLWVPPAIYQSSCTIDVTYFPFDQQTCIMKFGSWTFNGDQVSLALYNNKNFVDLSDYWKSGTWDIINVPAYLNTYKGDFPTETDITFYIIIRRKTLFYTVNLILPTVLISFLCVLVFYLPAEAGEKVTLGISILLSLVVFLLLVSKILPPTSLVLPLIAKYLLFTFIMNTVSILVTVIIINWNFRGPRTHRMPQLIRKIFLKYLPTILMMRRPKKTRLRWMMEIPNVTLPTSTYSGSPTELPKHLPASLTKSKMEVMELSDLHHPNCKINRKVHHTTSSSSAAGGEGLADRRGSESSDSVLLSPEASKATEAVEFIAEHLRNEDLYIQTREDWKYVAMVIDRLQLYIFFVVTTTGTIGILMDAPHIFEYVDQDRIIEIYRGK

Chain of Btα1/Btα2/Btα8/Btβ1 nAChR (A0A9B2JMX7 18-544, one chain of several): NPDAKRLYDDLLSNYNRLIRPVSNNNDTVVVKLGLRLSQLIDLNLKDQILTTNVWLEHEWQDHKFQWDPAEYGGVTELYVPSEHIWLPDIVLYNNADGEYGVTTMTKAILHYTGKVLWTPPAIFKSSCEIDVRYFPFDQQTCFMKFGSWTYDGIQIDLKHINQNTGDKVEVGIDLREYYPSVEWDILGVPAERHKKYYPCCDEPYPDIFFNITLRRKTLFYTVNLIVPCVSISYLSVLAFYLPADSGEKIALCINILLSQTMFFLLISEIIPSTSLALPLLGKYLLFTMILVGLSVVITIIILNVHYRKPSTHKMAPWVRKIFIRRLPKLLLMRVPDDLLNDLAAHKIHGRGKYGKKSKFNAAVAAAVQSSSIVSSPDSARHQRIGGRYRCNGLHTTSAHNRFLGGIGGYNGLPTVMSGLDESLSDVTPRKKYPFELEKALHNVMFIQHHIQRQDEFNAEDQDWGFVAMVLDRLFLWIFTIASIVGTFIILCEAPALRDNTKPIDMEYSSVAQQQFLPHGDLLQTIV
Chain of Amα1/Amα2/Amα8/Amβ1 nAChR (A0A8U0WQD1 18-541, one chain of several): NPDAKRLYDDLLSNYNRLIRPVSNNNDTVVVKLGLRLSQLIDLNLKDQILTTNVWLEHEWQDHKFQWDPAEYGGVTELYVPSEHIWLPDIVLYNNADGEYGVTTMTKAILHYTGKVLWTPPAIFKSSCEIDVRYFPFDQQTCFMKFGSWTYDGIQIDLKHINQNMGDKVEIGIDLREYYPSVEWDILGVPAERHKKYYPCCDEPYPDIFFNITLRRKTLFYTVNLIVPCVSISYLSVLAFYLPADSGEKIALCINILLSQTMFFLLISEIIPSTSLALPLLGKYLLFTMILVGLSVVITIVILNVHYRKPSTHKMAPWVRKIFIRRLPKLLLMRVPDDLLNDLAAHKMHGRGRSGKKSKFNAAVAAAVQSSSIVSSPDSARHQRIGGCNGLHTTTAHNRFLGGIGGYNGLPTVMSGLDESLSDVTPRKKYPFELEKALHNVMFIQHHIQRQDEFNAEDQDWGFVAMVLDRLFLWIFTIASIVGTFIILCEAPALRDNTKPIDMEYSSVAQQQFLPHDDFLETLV

Broadly, the EC50 is the concentration at which the effect is half-maximal. The low end stands for a more potent agent, the high end for a less potent agent. As for `CC(=O)OCC[N+](C)(C)C` [Acetylcholine], the 50% effective concentration (EC50) in test [1] is 2.19 µM; in test [2] it was 1.15 µM; in test [3] it was 1.91 µM; in test [4], 1.58 µM.
